Data on two compounds can be found in PMC6615598, “Novel antibiotics effective against gram-positive and -negative multi-resistant bacteria with limited resistance” (PLoS Biology, 2019).

The subject of one data set is zebrafish embryos. The data set can be described thus: Zebrafish embryo quantitative toxicity (size, curvature, cardiac frequency). The method, then:
Adult fish were kept in 30l aquariums at 27°C ± 2°C under constant light/dark (14:10 h) cycles. The day before the embryos were used, males and females were placed in breeding tanks. The fish were left undisturbed overnight, and the eggs were collected 1 h after the light was turned on the next morning. When the injections of the cyclic peptides started, embryos were transferred into microtiter plates placed at 28°C for 24 h. Peptides were prepared at 1, 10, 20, 40, and 100 mM concentrations in water, and injections were performed into the caudal vein. Each peptide was injected at 1 nl for all concentrations except 100 mM, when 2 nl was injected. Control embryos were injected with 1 nl of water. When the peptides were injected, analysis determined embryo sizes, curvatures, and cardiac frequencies. Peptide concentrations were checked in 10 embryos, and these were divided among 96-well plates and analyzed under a microscope or using a magnifying glass. […] To do this, each peptide was prepared in 0.9% NaCl and injected into the tail veins of 3 male Swiss mice at 1.5, 2.0, 2.5, or 5.0 mg.kg^−1, corresponding, respectively, to calculated blood concentrations of approximately 18.5, 24.5, 31, and 62.0 μM. […] Clinical signs were recorded daily, including any reduced motor activity, piloerection, and redness in the ear lobe, cyanosis, protruding eyeballs, slow or labored breathing, loss of response in the rear legs, convulsions, or death. Body weight was recorded at least once before the beginning of the treatment period and again on the day of treatment, with the satellite group checked once during the observation period. For the groups of mice observed for 7 d, food consumption was measured once during the study. […] Hematology investigations were performed before necropsy for all animals except the satellite ones, whose blood biochemistry parameters were determined before euthanasia. […]

The subject of the next data set is MRSA. The data set can be described thus: Membrane permeation, SYTO Green fluorescence. The data set is classed as cell-based, S. aureus.
Data set [1] has as its system E. coli ML-35p. Description: Outer membrane permeability, nitrocefin cleavage. It counts as cell-based. The conditions noted are these: concentration near MIC. The method, then: (§1) Outer and inner membrane permeability was determined on E. coli ML-35p, a lactose permease-deficient strain [8]. Permeation assays were carried out on 100 μl MHB from bacteria cultures grown to 0.15 OD600 (10^7 CFU/ml). Nitrocefin (20 μg/ml) was added to the tested molecules at a concentration near to their MICs, and cleavage was monitored by light absorption at 500 nm (outer membrane monitoring). Inner membrane monitoring of cleavage of ONPG (100 μg/ml) and substrate was monitored at 420 nm. Polymyxin B was a positive control, while a bacterial suspension in MHB was the negative control. Permeation assays were also performed on gram-positive S. aureus membranes (MSSA and MRSA) by fluorescence assay with SYTO Green nucleic acid stain (Life Technologies) in black flat-bottom 96-well microtiter plates (Greiner) in biological triplicate. Bacteria were grown to 0.3–0.4 OD600 in CAMHB at 37°C and centrifuged at 3,500 tr/min for 10 min. The pellet was washed and dissolved in PBS to an absorbance of 0.4 at 600 nm (approximately 2.10^8 CFU/ml). […] The amount of 50 μL of bacteria/SYTO Green mixture was added to each well containing compounds serially diluted in PBS, and fluorescence was measured at 37°C for up to 12 h using a spectrophotometer (BIOTEK, Tungsten-Halogen Lamp) with 485 nm excitation and 525 nm emission wavelengths.

Another data set has as its system S. aureus Newman. The data set can be described thus: SEM and TEM after treatment at MIC. The data set is classed as cell-based. Particulars: S. aureus treated at the MIC, 2 h 37°C. As for the experimental part: S. aureus Newman and E. coli K12 were cultured in MHB to an OD600 of 0.5 (10^8 CFU/ml). After adding peptides, samples were incubated at 160 rpm for 2 h at 37°C before centrifugation. Bacteria were exposed to pseudopeptide concentrations at their MIC. Untreated controls were prepared under identical conditions. Cell pellets were obtained after cell suspension centrifugation (1,000–3,000g for 5 min). […] S. aureus Newman samples were embedded in 2% agar and dehydrated in a graded series of increasing ethanol concentrations (50, 70, 90, and 100% v/v). For E. coli K12, the samples were placed on a 0.2 μm filter disc, dehydrated in a series of increasing ethanol concentrations, and vacuum dried for 48 h. For SEM observation, specimens were obtained after preparation with a Leica EM CPD300 critical point dryer. A Leica EM ACE200 was used for gold palladium metallization for 30 s. Sample observation was performed with a JEOL JSM-6301F microscope at 7 kV with a 15 mm work distance. TEM was also used to visualize the morphology and intracellular alteration of peptide-treated bacterial cells. For this, bacteria were grown and incubated with AMPs as described above for SEM sample preparation, and controls were prepared in standard medium. Cell pellets were also prepared as described above. […]

The test system of data set [2] is E. coli ML-35p. Description: Inner membrane permeability, ONPG cleavage. The data set is classed as cell-based. Particulars: concentration near MIC. As for the experimental part: as §1

Starred links: 1 amine or outer side, 2 acyl side, 3 side chain; linkers in the order of their positions; H or OH if unused. Non-standard residues stand in square brackets, D forms with d. Residues, ends and D or L forms follow the SMILES beside them. azaβ3(1Nal) = O=C(CN(Cc1cccc2ccccc12)N[*:1])[*:2]

Description for MRSA: Permeation assays were also performed on gram-positive S. aureus membranes (MSSA and MRSA) by fluorescence assay [31] with SYTO Green nucleic acid stain (Life Technologies) in black flat-bottom 96-well microtiter plates (Greiner) in biological triplicate. Bacteria were grown to 0.3–0.4 OD600 in CAMHB at 37°C and centrifuged at 3,500 tr/min for 10 min. The pellet was washed and dissolved in PBS to an absorbance of 0.4 at 600 nm (approximately 2.10^8 CFU/ml). SYTO Green was added to the cells at a 5 μM final concentration, with dark incubation for 30 min. The amount of 50 μL of bacteria/SYTO Green mixture was added to each well containing compounds serially diluted in PBS, and fluorescence was measured at 37°C for up to 12 h using a spectrophotometer (BIOTEK, Tungsten-Halogen Lamp) with 485 nm excitation and 525 nm emission wavelengths.

With `CC(C)[C@@H]1NC(=O)[C@H](CCCNC(=N)N)NC(=O)[C@H](CCCNC(=N)N)NC(=O)[C@H](Cc2c[nH]c3ccccc23)NC(=O)[C@H](Cc2ccccc2)NC(=O)[C@H](Cc2ccccc2)NC(=O)[C@H](CCCCN)NC1=O` [Pep18] (cyclo(FFWRRVK)), the “Cardiac frequency, Mean” value with zebrafish embryos (1 nl of 1 mM injected) stood at 29 heart beat/10 sec; with zebrafish embryos (1 nl of 10 mM injected), 29 heart beat/10 sec; in the data set with zebrafish embryos (1 nl of 20 mM injected), 22 heart beat/10 sec.

As for `CC(C)[C@@H]1NC(=O)[C@H](CCCNC(=N)N)NC(=O)[C@H](CCCNC(=N)N)NC(=O)CN(Cc2cccc3ccccc23)NC(=O)[C@H](Cc2ccccc2)NC(=O)CN(Cc2cccc3ccccc23)NC(=O)[C@H](CCCCN)NC1=O` [Pep19] (cyclo([azaβ3(1Nal)]F[azaβ3(1Nal)]RRVK)), the “Membrane permeation (leakage)” value with MRSA is listed as “most active”. The Outer membrane permeation result in the data set with E. coli ML-35p [1] was “most active”. For the same compound, in the data set with S. aureus Newman, the “Cell wall erosion by electron microscopy” value is given as “eroded”. In addition, in the data set with E. coli ML-35p [2], the Inner membrane permeation entry is on record as “most active”.
